{"source": "ChEMBL document CHEMBL1124477", "about": "“Regional differences in the binding of selective muscarinic receptor antagonists in rat brain: comparison with minimum-energy conformations” (J Med Chem, 1989)", "key": {"[1]": {"molecular_target": "Muscarinic acetylcholine receptor"}, "[2]": {"molecular_target": "Muscarinic acetylcholine receptor", "remark": "listed apart in the source"}, "[3]": {"molecular_target": "Muscarinic acetylcholine receptor", "remark": "listed apart in the source"}, "[4]": {"molecular_target": "Muscarinic acetylcholine receptor", "remark": "listed apart in the source"}, "[5]": {"molecular_target": "Muscarinic acetylcholine receptor", "remark": "listed apart in the source"}, "[6]": {"molecular_target": "Muscarinic acetylcholine receptor", "remark": "listed apart in the source"}, "[7]": {"molecular_target": "Muscarinic acetylcholine receptor", "remark": "listed apart in the source"}, "[8]": {"molecular_target": "Muscarinic acetylcholine receptor", "remark": "listed apart in the source"}, "[9]": {"molecular_target": "Muscarinic acetylcholine receptor", "remark": "listed apart in the source"}, "[10]": {"molecular_target": "Muscarinic acetylcholine receptor", "parameters": "species or system Rattus norvegicus"}, "[11]": {"molecular_target": "Muscarinic acetylcholine receptor", "remark": "listed apart in the source"}, "[12]": {"molecular_target": "Muscarinic acetylcholine receptor", "remark": "listed apart in the source"}, "[13]": {"molecular_target": "Muscarinic acetylcholine receptor", "remark": "listed apart in the source"}, "[14]": {"molecular_target": "Muscarinic acetylcholine receptor", "remark": "listed apart in the source"}, "[15]": {"molecular_target": "Muscarinic acetylcholine receptor", "remark": "listed apart in the source"}, "[16]": {"molecular_target": "Muscarinic acetylcholine receptor", "remark": "listed apart in the source"}, "[17]": {"molecular_target": "Muscarinic acetylcholine receptor", "remark": "listed apart in the source"}, "[18]": {"molecular_target": "Muscarinic acetylcholine receptor", "remark": "listed apart in the source"}, "[19]": {"molecular_target": "Muscarinic acetylcholine receptor", "remark": "listed apart in the source"}, "[20]": {"molecular_target": "Muscarinic acetylcholine receptor", "remark": "listed apart in the source"}, "[21]": {"molecular_target": "Muscarinic acetylcholine receptor", "remark": "listed apart in the source"}, "[22]": {"molecular_target": "Muscarinic acetylcholine receptor", "remark": "listed apart in the source"}, "[23]": {"molecular_target": "Muscarinic acetylcholine receptor", "parameters": "species or system Rattus norvegicus", "remark": "listed apart in the source"}, "[24]": {"molecular_target": "Muscarinic acetylcholine receptor", "remark": "listed apart in the source"}, "[25]": {"molecular_target": "Muscarinic acetylcholine receptor", "assay_type": "tissue-based, Rattus norvegicus, Hippocampus"}, "[26]": {"molecular_target": "Muscarinic acetylcholine receptor", "remark": "listed apart in the source"}, "[27]": {"molecular_target": "Muscarinic acetylcholine receptor", "remark": "listed apart in the source"}, "[28]": {"molecular_target": "Muscarinic acetylcholine receptor", "remark": "listed apart in the source"}, "[29]": {"molecular_target": "Muscarinic acetylcholine receptor", "remark": "listed apart in the source"}, "[30]": {"molecular_target": "Muscarinic acetylcholine receptor", "remark": "listed apart in the source"}, "[31]": {"molecular_target": "Muscarinic acetylcholine receptor", "remark": "listed apart in the source"}, "[32]": {"molecular_target": "Muscarinic acetylcholine receptor", "remark": "listed apart in the source"}, "[33]": {"molecular_target": "Muscarinic acetylcholine receptor", "remark": "listed apart in the source"}, "[34]": {"molecular_target": "Muscarinic acetylcholine receptor", "remark": "listed apart in the source"}, "[35]": {"molecular_target": "Muscarinic acetylcholine receptor", "remark": "listed apart in the source"}, "[36]": {"molecular_target": "Muscarinic acetylcholine receptor", "remark": "listed apart in the source"}, "[37]": {"molecular_target": "Muscarinic acetylcholine receptor", "remark": "listed apart in the source"}, "[38]": {"molecular_target": "Muscarinic acetylcholine receptor", "remark": "listed apart in the source"}, "[39]": {"molecular_target": "Muscarinic acetylcholine receptor", "remark": "listed apart in the source"}, "[40]": {"molecular_target": "Muscarinic acetylcholine receptor", "assay_type": "tissue-based, Rattus norvegicus, Hippocampus", "remark": "listed apart in the source"}, "[41]": {"molecular_target": "Muscarinic acetylcholine receptor", "remark": "listed apart in the source"}, "[42]": {"molecular_target": "Muscarinic acetylcholine receptor", "remark": "listed apart in the source"}, "[43]": {"molecular_target": "Muscarinic acetylcholine receptor", "remark": "listed apart in the source"}, "[44]": {"molecular_target": "Muscarinic acetylcholine receptor", "remark": "listed apart in the source"}, "[45]": {"molecular_target": "Muscarinic acetylcholine receptor", "remark": "listed apart in the source"}, "[46]": {"molecular_target": "Muscarinic acetylcholine receptor", "remark": "listed apart in the source"}, "[47]": {"molecular_target": "Muscarinic acetylcholine receptor", "remark": "listed apart in the source"}, "[48]": {"molecular_target": "Muscarinic acetylcholine receptor", "remark": "listed apart in the source"}, "[49]": {"molecular_target": "Muscarinic acetylcholine receptor", "remark": "listed apart in the source"}, "[50]": {"molecular_target": "Muscarinic acetylcholine receptor", "assay_type": "tissue-based, Rattus norvegicus, Hippocampus", "remark": "listed apart in the source"}, "[51]": {"molecular_target": "Muscarinic acetylcholine receptor", "remark": "listed apart in the source"}, "[52]": {"molecular_target": "Muscarinic acetylcholine receptor", "remark": "listed apart in the source"}, "[53]": {"molecular_target": "Muscarinic acetylcholine receptor", "remark": "listed apart in the source"}, "[54]": {"molecular_target": "Muscarinic acetylcholine receptor", "remark": "listed apart in the source"}, "[55]": {"molecular_target": "Muscarinic acetylcholine receptor", "remark": "listed apart in the source"}, "[56]": {"molecular_target": "Muscarinic acetylcholine receptor", "remark": "listed apart in the source"}, "[57]": {"molecular_target": "Muscarinic acetylcholine receptor", "remark": "listed apart in the source"}, "[58]": {"molecular_target": "Muscarinic acetylcholine receptor", "remark": "listed apart in the source"}, "[59]": {"molecular_target": "Muscarinic acetylcholine receptor", "remark": "listed apart in the source"}, "[60]": {"molecular_target": "Muscarinic acetylcholine receptor", "remark": "listed apart in the source"}}, "data": [{"smiles": "CCN(CC)CC1CCCCN1CC(=O)N1c2ccccc2C(=O)Nc2cccnc21", "note": "(stereo not given) [OTENZEPAD]", "values": [{"measurement": "IC50", "setting": "[1]", "result": 7300, "unit": "nM"}, {"measurement": "IC50", "setting": "[2]", "result": 260, "unit": "nM"}, {"measurement": "IC50", "setting": "[3]", "result": 300, "unit": "nM"}, {"measurement": "IC50", "setting": "[4]", "result": 7000, "unit": "nM"}, {"measurement": "IC50", "setting": "[5]", "result": 2900, "unit": "nM"}, {"measurement": "IC50", "setting": "[6]", "result": 2300, "unit": "nM"}, {"measurement": "IC50", "setting": "[7]", "result": 1900, "unit": "nM"}, {"measurement": "IC50", "setting": "[8]", "result": 420, "unit": "nM"}, {"measurement": "IC50", "setting": "[9]", "result": 490, "unit": "nM"}, {"measurement": "IC50", "setting": "[10]", "result": 4000, "unit": "nM"}, {"measurement": "IC50", "setting": "[11]", "result": 1700, "unit": "nM"}, {"measurement": "IC50", "setting": "[12]", "result": 310, "unit": "nM"}, {"measurement": "IC50", "setting": "[13]", "result": 3200, "unit": "nM"}, {"measurement": "IC50", "setting": "[14]", "result": 1400, "unit": "nM"}, {"measurement": "IC50", "setting": "[15]", "result": 320, "unit": "nM"}, {"measurement": "IC50", "setting": "[16]", "result": 460, "unit": "nM"}, {"measurement": "IC50", "setting": "[17]", "result": 860, "unit": "nM"}, {"measurement": "IC50", "setting": "[18]", "result": 310, "unit": "nM"}, {"measurement": "IC50", "setting": "[19]", "result": 4900, "unit": "nM"}, {"measurement": "IC50", "setting": "[20]", "result": 1000, "unit": "nM"}, {"measurement": "IC50", "setting": "[21]", "result": 1000, "unit": "nM"}, {"measurement": "IC50", "setting": "[22]", "result": 1500, "unit": "nM"}, {"measurement": "IC50", "setting": "[23]", "result": 1600, "unit": "nM"}, {"measurement": "IC50", "setting": "[24]", "result": 6500, "unit": "nM"}, {"measurement": "IC50", "setting": "[25]", "result": 3200, "unit": "nM"}, {"measurement": "IC50", "setting": "[26]", "result": 430, "unit": "nM"}, {"measurement": "IC50", "setting": "[27]", "result": 2000, "unit": "nM"}, {"measurement": "IC50", "setting": "[28]", "result": 250, "unit": "nM"}, {"measurement": "IC50", "setting": "[29]", "result": 610, "unit": "nM"}, {"measurement": "IC50", "setting": "[30]", "result": 14000, "unit": "nM"}, {"measurement": "IC50", "setting": "[31]", "result": 9800, "unit": "nM"}, {"measurement": "IC50", "setting": "[32]", "result": 2100, "unit": "nM"}, {"measurement": "IC50", "setting": "[33]", "result": 720, "unit": "nM"}, {"measurement": "IC50", "setting": "[34]", "result": 620, "unit": "nM"}, {"measurement": "IC50", "setting": "[35]", "result": 4300, "unit": "nM"}, {"measurement": "IC50", "setting": "[36]", "result": 240, "unit": "nM"}, {"measurement": "IC50", "setting": "[37]", "result": 580, "unit": "nM"}, {"measurement": "IC50", "setting": "[38]", "result": 4300, "unit": "nM"}, {"measurement": "IC50", "setting": "[39]", "result": 1400, "unit": "nM"}, {"measurement": "IC50", "setting": "[40]", "result": 6100, "unit": "nM"}, {"measurement": "IC50", "setting": "[41]", "result": 2100, "unit": "nM"}, {"measurement": "IC50", "setting": "[42]", "result": 1800, "unit": "nM"}, {"measurement": "IC50", "setting": "[43]", "result": 260, "unit": "nM"}, {"measurement": "IC50", "setting": "[44]", "result": 5800, "unit": "nM"}, {"measurement": "IC50", "setting": "[45]", "result": 1200, "unit": "nM"}, {"measurement": "IC50", "setting": "[46]", "result": 690, "unit": "nM"}, {"measurement": "IC50", "setting": "[47]", "result": 790, "unit": "nM"}, {"measurement": "IC50", "setting": "[48]", "result": 580, "unit": "nM"}, {"measurement": "IC50", "setting": "[49]", "result": 230, "unit": "nM"}, {"measurement": "IC50", "setting": "[50]", "result": 6300, "unit": "nM"}, {"measurement": "IC50", "setting": "[51]", "result": 1300, "unit": "nM"}, {"measurement": "IC50", "setting": "[52]", "result": 570, "unit": "nM"}, {"measurement": "IC50", "setting": "[53]", "result": 960, "unit": "nM"}, {"measurement": "IC50", "setting": "[54]", "result": 680, "unit": "nM"}, {"measurement": "IC50", "setting": "[55]", "result": 840, "unit": "nM"}, {"measurement": "IC50", "setting": "[56]", "result": 250, "unit": "nM"}, {"measurement": "IC50", "setting": "[57]", "result": 310, "unit": "nM"}, {"measurement": "IC50", "setting": "[58]", "result": 1300, "unit": "nM"}, {"measurement": "IC50", "setting": "[59]", "result": 420, "unit": "nM"}, {"measurement": "IC50", "setting": "[60]", "result": 490, "unit": "nM"}]}]}
